Assay results from patent US20220313651A1, “INHIBITORS OF ZIKA VIRUS INFECTION” (priority 2019, published 2022).
Like-named read-outs stand apart in the source and are kept apart here.

Experiments:
ZIKV FLR strain = test: Combinatorial effects of gossypol with other Z-medicaments, ZIKV FLR; format: cell-based, Zika virus (ZIKV); conditions: for Fold of Enhancement / CI (combination index): ZIKV FLR; for Fold of Enhancement: IC50 alone / in mixture; for CI (combination index): named compound in combination with gossypol
Procedure: The unbound viruses and Z-medicaments were removed, and the cells were cultured at 37° C. for 4-5 days, followed by staining with 0.5% crystal violet. The Z-medicaments without combinations were used as controls. The IC50 of the Z-medicaments was calculated as described above.
The Z-medicaments were then analyzed for synergistic effects based on the combination index (CI) and IC50 values using the CalcuSyn program. Specifically, CI values <1 and >1 indicate synergy and antagonism, respectively. Synergy was further identified as five different categories: CI values <0.1, 0.1-0.3, 0.3-0.7, 0.7-0.85, and 0.85-0.90 indicate very strong synergism, strong synergism, synergism, moderate synergism, and slight synergism, respectively. Fold enhancement of anti-ZIKV potency is expressed as the ratio of molar concentrations of the Z-medicaments tested alone and in the mixture.

ZIKV (PAN2016) = test: Time-of-addition experiment, ZIKV PAN2016 in Vero E6 cells; format: cell-based, Zika virus (ZIKV); conditions: for Inhibition of ZIKV infection, attachment: ZIKV and compound at 4° C. 1 h; for Inhibition of ZIKV infection, pretreatment of ZIKV: virus incubated with compound 37° C. 1 h before cells; for inhibition at 7.5 µM: Zika virus; for Inhibition of ZIKV infection, pretreatment of cells: cells incubated with compound 37° C. 1 h before ZIKV; for Inhibition of ZIKV infection, penetration (membrane fusion): cells with ZIKV at 4° C. 1 h; for Inhibition of ZIKV infection, penetration (membrane fusion) / Inhibition of ZIKV infection, post-entry stage: then compound 37° C. 1 h; for Inhibition of ZIKV infection, post-entry stage: cells with ZIKV at 37° C. 1 h
Procedure: FIG. 2A-K depicts a time-of-addition experiment to test the ability of the disclosed compounds to block ZIKV infection at different steps of the viral life cycle. […] FIG. 2B: Pretreatment of cells: cells were pre-incubated with one of the compounds at 37° C. for 1 h, and the unbound compounds were then removed, followed by addition of ZIKV and incubation of cells at 37° C. for 1 h. After removal of the unbound ZIKV, the cells were cultured and plaques and inhibition rate determined as in FIG. 2A. FIG. 2C: Blockage of ZIKV attachment: cells were incubated with ZIKV at 4° C. for 1 h (to allow ZIKV attachment but not fusion between ZIKV and cell membranes) in the presence of one of the compounds. After removal of the unbound ZIKV and compounds, the cells were cultured and plaques and inhibition rate determined. […] FIG. 2E: Blockage of ZIKV penetration (membrane fusion): cells were incubated with ZIKV at 4° C. for 1 h to allow ZIKV attachment. After removal of the unbound ZIKV, the cells were incubated with one of the compounds at 37° C. for 1 h to allow fusion of virus-cell membranes. After further removal of the unbound compounds, the cells were cultured and plaques and inhibition rate determined. FIG. 2F: Inhibition of post-entry stage: cells were incubated with ZIKV at 37° C. for 1 h (to allow ZIKV entry into the target cells). […] The percent inhibition was calculated based on the numbers of plaques in the presence or absence of serially diluted compounds. The data are expressed as mean±s.e.m. (n=2). The experiments were repeated three times with similar results.
Time-of-addition experiments were performed in Vero E6 cells, and six specific steps are shown as follows. 1) Step 1: Pretreatment of virus. […] After removal of the unbound compounds, ZIKV was incubated with cells at 37° C. for 1 h, followed by culturing cells at 37° C. for 4-5 days, and enumerating plaques. 2) Step 2: Pretreatment of cells. […] The unbound ZIKV was removed, and the cells were cultured and plaques enumerated as in Step 1. 3) Step 3: Attachment. […] After removal of the unbound ZIKV and compounds, the cells were cultured and plaques enumerated as in Step 1. 4) Step 4: Co-treatment. […] After removal of the unbound viruses and compounds, the cells were cultured and plaques enumerated as in Step 1. 5) Step 5: Fusion. Cells were incubated with ZIKV at 4° C. for 1 h for ZIKV attachment. […] The unbound compounds were removed, and the cells were cultured and plaques enumerated as in Step 1. 6) Step 6: Post-entry. Cells were incubated with ZIKV at 37° C. for 1 h for ZIKV entry. […] The unbound compounds were then removed, and the cells were cultured and enumerated for plaques as in Step 1. The data are expressed as mean % inhibition±s.e.m. (n=2). The percent inhibition was calculated based on the numbers of plaques in the presence or absence of the compounds. The experiments were repeated three times with similar results.
Time-of-addition experiments. were performed to identify mechanisms of the Z-medicaments against ZIKV infection. […] Specifically, the following six stages of ZIKV infection were tested: (a) Pretreatment of ZIKV (PAN2016, ˜2.5×10^3 PFU) with the Z-medicaments at 37° C. for 1 h before incubation with cells; (b) Pretreatment of cells with the Z-medicaments at 37° C. for 1 h before incubation with ZIKV (PAN2016, ˜100 PFU); (c) Co-treatment of cells, ZIKV (PAN2016, ˜300 PFU) and the Z-medicaments at 4° C. for 1 h; (d) Co-treatment of cells, ZIKV (PAN2016, ˜100 PFU) and the Z-medicaments at 37° C. for 1 h; (e) Pre-incubation of cells with ZIKV (PAN2016, ˜300 PFU) at 4° C. for 1 h and then incubation with the Z-medicaments at 37° C. for 1 h; and (f) Pre-incubation of ZIKV (PAN2016, ˜100 PFU) and cells at 37° C. for 1 h, followed by incubation with the Z-medicaments at 37° C. for 1 h. […]

LLC-MK2 cells = test system: LLC-MK2 cells
Procedure: The cytotoxicity of Z-medicaments in LLC-MK2 (DENV-1-4 target cells) was detected using Cell Counting Kit-8 (CCK8). […] The cells were then incubated with CCK8 solution, and measured absorbance at 450 nm (A450 value) using a microplate reader.
Briefly, compounds at 2-fold serial dilutions were added to cells (2.0×10^4/well) pre-seeded in 96-well plates. The cells were cultured at 37° C. for 3 days, and incubated with CCK8 solution, followed by measurement of absorbance at 450 nm (A450 value) using microplate reader.

[1] = co-treatment of cells, gossypol 15 μM, curcumin 30 μM, digitonin 7.5 μM, conessine 30 μM, ST087010 15 μM
[2] = gossypol 15 μM, curcumin 30 μM, digitonin 7.5 μM, conessine 30 μM, ST087010 15 μM

Structure (SMILES) | CI (combination index) (ZIKV FLR strain) | Inhibition of ZIKV infection, attachment (ZIKV (PAN2016); [1]) | Inhibition of ZIKV infection, pretreatment of ZIKV (ZIKV (PAN2016); [2]) | CC50 (LLC-MK2 cells; 3 days, CCK8, Table 5) [µM] | Inhibition of ZIKV infection, pretreatment of cells (ZIKV (PAN2016); [2]) | Inhibition of ZIKV infection, penetration (membrane fusion) (ZIKV (PAN2016); [2]) | Inhibition of ZIKV infection, post-entry stage (ZIKV (PAN2016); [2]) | also measured
C[C@H]1[C@H]2CC[C@H]3[C@@H]4CC=C5C[C@@H](N(C)C)CC[C@]5(C)[C@H]4CC[C@]23CN1C [Conessine, conessine] | 0.85 | very low, to no, effects | very low, to no, effects | – | – | – | – | Fold of Enhancement (ZIKV FLR strain; gossypol + conessine): 2.13
C[C@@H]1CC[C@@]2(OC1)O[C@H]1[C@@H](O)[C@H]3[C@@H]4CC[C@H]5C[C@@H](O[C@@H]6O[C@H](CO)[C@H](O[C@@H]7O[C@H](CO)[C@@H](O)[C@H](O[C@@H]8OC[C@@H](O)[C@H](O)[C@H]8O)[C@H]7O[C@@H]7O[C@H](CO)[C@H](O)[C@H](O[C@@H]8O[C@H](CO)[C@@H](O)[C@H](O)[C@H]8O)[C@H]7O)[C@H](O)[C@H]6O)[C@H](O)C[C@]5(C)[C@H]4CC[C@]3(C)[C@H]1[C@@H]2C [Digitonin, digitonin] | 0.95 | – | no effects | 59.02 ± 0.33 | – | – | – | Fold of Enhancement (ZIKV FLR strain; gossypol + digitonin): 2.04; inhibition at 7.5 µM (ZIKV (PAN2016); Vero C1008, 1 h, read-out: Inhibition of ZIKV infection, penetration (membrane fusion)): 49 to 74%; inhibition at 7.5 µM (ZIKV (PAN2016); Vero C1008, 1 h, read-out: Inhibition of ZIKV infection, post-entry stage): 49 to 74%; inhibition at 7.5 µM (ZIKV (PAN2016); Vero C1008, read-out: Inhibition of ZIKV infection, pretreatment of cells): ≥ 94%
Cc1cc2c(C(C)C)c(O)c(O)c(C=O)c2c(O)c1-c1c(C)cc2c(C(C)C)c(O)c(O)c(C=O)c2c1O [Gossypol, gossypol] | – | – | – | – | – | – | – | IC50 (ZIKV FLR strain; Zika virus, Vero C1008, read-out: IC50 Alone): 0.26 ± 0.01 µM
Cc1cc2c(C(C)C)c(O)c(O)c(/C=N/n3c(=O)[nH][nH]c3=O)c2c(O)c1-c1c(C)cc2c(C(C)C)c(O)c(O)c(/C=N/n3c(=O)[nH][nH]c3=O)c2c1O [ST087010] | – | < 40% | almost completely inhibited | – | no or little | no or little | < 20% | CC50 (LLC-MK2 cells; Table 8): 47.2 µM; Inhibition of ZIKV infection, co-treatment of ZIKV and cells (ZIKV (PAN2016); co-treatment of cells, ZIKV and compound at 37° C. 1 h, gossypol 15 μM, curcumin 30 μM, digitonin 7.5 μM, conessine 30 μM, ST087010 15 μM): no or little
COc1cc(/C=C/C(=O)CC(=O)/C=C/c2ccc(O)c(OC)c2)ccc1O [Curcumin, curcumin] | 0.49 | – | – | 59.4 ± 1.18 | low to no impact | low to no impact | low to no impact | Fold of Enhancement (ZIKV FLR strain; gossypol + curcumin): 3.84
